One may read the pIC50 as the IC50 on a negative log10 scale, so that one unit is a factor of ten. The low end stands for a large IC50, the high end for a small IC50.

Each structure is given as a SMILES string. pIC50: −log10 of the molar value.

HCV NS5B polymerase, sequence (P26663 2420-3010): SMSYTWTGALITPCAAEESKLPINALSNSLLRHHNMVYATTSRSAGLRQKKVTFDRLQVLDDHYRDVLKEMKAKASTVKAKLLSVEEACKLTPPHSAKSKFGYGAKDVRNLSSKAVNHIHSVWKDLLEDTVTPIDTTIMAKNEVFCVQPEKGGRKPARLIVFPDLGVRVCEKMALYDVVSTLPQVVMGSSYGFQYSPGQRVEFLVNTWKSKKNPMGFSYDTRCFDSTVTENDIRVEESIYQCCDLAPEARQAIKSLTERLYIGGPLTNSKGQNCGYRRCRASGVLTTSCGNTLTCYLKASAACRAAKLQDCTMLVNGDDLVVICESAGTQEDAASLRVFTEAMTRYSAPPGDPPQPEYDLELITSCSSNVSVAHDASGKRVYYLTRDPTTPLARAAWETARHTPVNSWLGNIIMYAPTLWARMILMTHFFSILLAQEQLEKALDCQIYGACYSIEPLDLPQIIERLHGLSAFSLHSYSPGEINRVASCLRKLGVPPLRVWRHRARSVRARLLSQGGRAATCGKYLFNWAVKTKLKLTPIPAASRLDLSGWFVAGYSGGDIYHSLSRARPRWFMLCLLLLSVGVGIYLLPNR

This test addresses HCV NS5B polymerase (Hepatitis C virus genotype 1b, UniProt P26663). Kind of test: biochemical. The following applies: HCV polymerase inhibition, 50 nM enzyme, 2 h at room temperature, FlashPlate [α-33P]GTP incorporation. On the procedure: NS5B Polymerase Inhibition Assay (IC50)
Compounds were tested for HCV polymerase inhibition. Assays were performed in a 96-well streptavidin-coated FlashPlate using 50 nM enzyme, 0.5 μCi of [α-^33P]GTP, 0.6 μM GTP, and 50 nM 5′biotinylated oligo (rG13)/poly rC in 20 mM Tris-HCl, pH 7.5, 5 mM MgCl2, 20 mM NaCl, 5 mM dithiothreitol, and 0.1 g/L BSA. The reaction was stopped by aspiration after 2 h at room temperature and the plate was washed several times. After washing, incorporated radioactivity was counted using a Microbeta scintillation counter.
For the compound `CC(C)CCn1nc(-c2cccs2)c(OCOC(=O)C(C)(C)C)c(C2=Nc3ccc(N(C)S(C)(=O)=O)cc3S(=O)(=O)N2)c1=O` [2,2-Dimethyl-propionic acid 5-[7-(methanesulfonyl-methyl-amino)-1,1-dioxo-1,2-dihydro-1λ^6-benzo[1,2,4]thiadiazin-3-yl]-1-(3-methyl-butyl)-6-oxo-3-thiophen-2-yl-1,6-dihydro-pyridazin-4-yloxymethyl ester], the pIC50 is 5.00 to 6.00.

With `CC(C)(C)CCn1nc(-c2cccs2)c(O)c(C2=NS(=O)(=O)c3cc(N(COC(=O)C(C)(C)C)S(C)(=O)=O)ccc3N2)c1=O` [2,2-Dimethyl-propionic acid ({3-[2-(3,3-dimethyl-butyl)-5-hydroxy-3-oxo-6-thiophen-2-yl-2,3-dihydro-pyridazin-4-yl]-1,1-dioxo-1,2-dihydro-1λ^6-benzo[1,2,4]thiadiazin-7-yl}-methanesulfonyl-amino)-methylester], the pIC50 is 6.00 to 7.00.

For the compound `CC(C)CCn1nc(-c2cccs2)c(O)c(C2=Nc3ccc(N(COC(=O)C(C)(C)C)S(C)(=O)=O)cc3S(=O)(=O)N2)c1=O` [2,2-Dimethyl-propionic acid ({3-[5-hydroxy-2-(3-methyl-butyl)-3-oxo-6-thiophen-2-yl-2,3-dihydro-pyridazin-4-yl]-1,1-dioxo-1,2-dihydro-1λ^6-benzo[1,2,4]thiadiazin-7-yl}-methanesulfonyl-amino)-methylester], the negative logarithm of the IC50 (pIC50) is 6.00 to 7.00.

`CC(C)(C)CCn1nc(-c2cccs2)c(O)c(C2=Nc3ccc(NS(=O)(=O)CCN)cc3S(=O)(=O)N2)c1=O` [2-Amino-ethanesulfonic acid {3-[2-(3,3-dimethyl-butyl)-5-hydroxy-3-oxo-6-thiophen-2-yl-2,3-dihydro-pyridazin-4-yl]-1,1-dioxo-1,2-dihydro-1λ^6-benzo[1,2,4]thiadiazin-7-yl}-amide]: the pIC50 is > 7.00.

For the compound `CCN(CC)CCS(=O)(=O)Nc1ccc2c(c1)S(=O)(=O)NC(c1c(O)c(-c3cccs3)nn(CCC(C)(C)C)c1=O)=N2` [2-Diethylamino-ethanesulfonicacid {3-[2-(3,3-dimethyl-butyl)-5-hydroxy-3-oxo-6-thiophen-2-yl-2,3-dihydro-pyridazin-4-yl]-1,1-dioxo-1,4-dihydro-1λ^6-benzo[1,2,4]thiadiazin-7-yl}-amide], the negative logarithm of the IC50 (pIC50) is 6.00 to 7.00.

Take `CC(C)CCn1nc(-c2cncs2)c(O)c(C2=Nc3ccc(NS(=O)(=O)C(C)(C)C)cc3S(=O)(=O)N2)c1=O` [2-Methyl-propane-2-sulfonic acid{3-[5-hydroxy-2-(3-methyl-butyl)-3-oxo-6-thiazol-5-yl-2,3-dihydro-pyridazin-4-yl]-1,1-dioxo-1,2-dihydro-1λ^6-benzo[1,2,4]thiadiazin-7-yl}-amide]: the negative logarithm of the IC50 (pIC50) is > 7.00.

Take `CC(C)CCn1nc(-c2cccs2)c(O)c(C2=Nc3ccc(NCCS(N)(=O)=O)cc3S(=O)(=O)N2)c1=O` [2-{3-[5-Hydroxy-2-(3-methyl-butyl)-3-oxo-6-thiophen-2-yl-2,3-dihydro-pyridazin-4-yl]-1,1-dioxo-1,2-dihydro-1λ^6-benzo[1,2,4]thiadiazin-7-ylamino}-ethanesulfonic acid amide]: the pIC50 was 6.00 to 7.00.

With `CC(C)CCn1nc(-c2cccs2)c(O)c(C2=NS(=O)(=O)c3cc(N4CCCS4(=O)=O)ccc3N2)c1=O` [4-[7-(1,1-Dioxo-1l6-isothiazolidin-2-yl)-1,1-dioxo-1,2-dihydro-1λ^6-benzo[1,2,4]thiadiazin-3-yl]-5-hydroxy-2-(3-methyl-butyl)-6-thiophen-2-yl-2H-pyridazin-3-one], the negative logarithm of the IC50 (pIC50) was 6.00 to 7.00.

With `CC(C)CCn1nc(-c2cccs2)c(O)c(C2=Nc3ccc(C4CCCS4(=O)=O)cc3S(=O)(=O)N2)c1=O` (centres unmarked) [4-[7-(1,1-Dioxo-tetrahydro-1l6-thiophen-2-yl)-1,1-dioxo-1,2-dihydro-1λ^6-benzo[1,2,4]thiadiazin-3-yl]-5-hydroxy-2-(3-methyl-butyl)-6-thiophen-2-yl-2H-pyridazin-3-one], the pIC50 is 6.00 to 7.00.

Turning to `CC(C)CCn1nc(-c2cccs2)c(O)c(C2=NS(=O)(=O)c3cc(CCS(C)(=O)=O)ccc3N2)c1=O` [5-Hydroxy-4-[7-(2-methanesulfonyl-ethyl)-1,1-dioxo-1,2-dihydro-1λ^6-benzo[1,2,4]thiadiazin-3-yl]-2-(3-methyl-butyl)-6-thiophen-2-yl-2H-pyridazin-3-one], the pIC50 is 6.00 to 7.00.

Consider `CC(C)CCn1nc(-c2cccs2)c(O)c(C2=Nc3ccc(/C=C/S(C)(=O)=O)cc3S(=O)(=O)N2)c1=O` [5-Hydroxy-4-[7-(2-methanesulfonyl-vinyl)-1,1-dioxo-1,2-dihydro-1λ^6-benzo[1,2,4]thiadiazin-3-yl]-2-(3-methyl-butyl)-6-thiophen-2-yl-2H-pyridazin-3-one], for which the pIC50 was 6.00 to 7.00.

With `O=c1c(C2=Nc3ccc(NS(=O)(=O)C4CC4)cc3S(=O)(=O)N2)c(O)c(-c2cccs2)nn1CCC1CC1` [Cyclopropanesulfonic acid {3-[2-(2-cyclopropyl-ethyl)-5-hydroxy-3-oxo-6-thiophen-2-yl-2,3-dihydro-pyridazin-4-yl]-1,1-dioxo-1,2-dihydro-1λ^6-benzo[1,2,4]thiadiazin-7-yl}-amide], the negative logarithm of the IC50 (pIC50) is > 7.00.

`O=c1c(C2=Nc3ccc(NS(=O)(=O)C4CC4)cc3S(=O)(=O)N2)c(O)c(-c2cccs2)nn1Cc1ccc(F)c(Cl)c1` [Cyclopropanesulfonic acid {3-[2-(3-chloro-4-fluoro-benzyl)-5-hydroxy-3-oxo-6-thiophen-2-yl-2,3-dihydro-pyridazin-4-yl]-1,1-dioxo-1,2-dihydro-1λ^6-benzo[1,2,4]thiadiazin-7-yl}-amide] showed a negative-log IC50 (pIC50) of 6.00 to 7.00.

Consider `CC(C)CCn1nc(-c2cncs2)c(O)c(C2=Nc3ccc(NS(=O)(=O)C4CC4)cc3S(=O)(=O)N2)c1=O` [Cyclopropanesulfonic acid {3-[5-hydroxy-2-(3-methyl-butyl)-3-oxo-6-thiazol-5-yl-2,3-dihydro-pyridazin-4-yl]-1,1-dioxo-1,2-dihydro-1λ^6-benzo[1,2,4]thiadiazin-7-yl}-amide], for which the pIC50 is > 7.00.

Compound `CC(C)CCn1nc(C(C)(C)C)c(O)c(C2=Nc3ccc(NS(=O)(=O)C4CC4)cc3S(=O)(=O)N2)c1=O` [Cyclopropanesulfonic acid {3-[6-tert-butyl-5-hydroxy-2-(3-methyl-butyl)-3-oxo-2,3-dihydro-pyridazin-4-yl]-1,1-dioxo-1,2-dihydro-1λ^6-benzo[1,2,4]thiadiazin-7-yl}-amide] gave a pIC50 of 5.00 to 6.00.

Take `CCS(=O)(=O)Nc1ccc2c(c1)S(=O)(=O)NC(c1c(O)c(-c3cncs3)nn(CCC(C)C)c1=O)=N2` [Ethanesulfonic acid {3-[5-hydroxy-2-(3-methyl-butyl)-3-oxo-6-thiazol-5-yl-2,3-dihydro-pyridazin-4-yl]-1,1-dioxo-1,2-dihydro-1λ^6-benzo[1,2,4]thiadiazin-7-yl}-amide]: the pIC50 is > 7.00.

Consider `CCS(=O)(=O)Nc1ccc2c(c1)S(=O)(=O)NC(c1c(O)c(-c3cccs3)nn(CCC(C)C)c1=O)=N2` [Ethanesulfonic acid {3-[5-hydroxy-2-(3-methyl-butyl)-3-oxo-6-thiophen-2-yl-2,3-dihydro-pyridazin-4-yl]-1,1-dioxo-1,2-dihydro-1λ^6-benzo[1,2,4]thiadiazin-7-yl}-amide], for which the negative logarithm of the IC50 (pIC50) is > 7.00.

`C=CS(=O)(=O)N(C)c1ccc2c(c1)S(=O)(=O)NC(c1c(O)c(-c3cccs3)nn(CCC(C)(C)C)c1=O)=N2` [Ethenesulfonic acid {3-[2-(3,3-dimethyl-butyl)-5-hydroxy-3-oxo-6-thiophen-2-yl-2,3-dihydro-pyridazin-4-yl]-1,1-dioxo-1,2-dihydro-1λ^6-benzo[1,2,4]thiadiazin-7-yl}-methyl-amide] showed a negative-log IC50 (pIC50) of 5.00 to 6.00.

As to `CC(C)CCn1nc(-c2cccs2)c(OC(=O)C(C)C)c(C2=Nc3ccc(N(C)S(C)(=O)=O)cc3S(=O)(=O)N2)c1=O` [Isobutyric acid 5-[7-(methanesulfonyl-methyl-amino)-1,1-dioxo-1,2-dihydro-1λ^6-benzo[1,2,4]thiadiazin-3-yl]-1-(3-methyl-butyl)-6-oxo-3-thiophen-2-yl-1,6-dihydro-pyridazin-4-yl ester], the pIC50 is 5.00 to 6.00.

In turn, `CC(C)CCn1nc(-c2cncs2)c(O)c(C2=Nc3ccc(N(CCO)S(C)(=O)=O)cc3S(=O)(=O)N2)c1=O` [N-(2-Hydroxy-ethyl)-N-{3-[5-hydroxy-2-(3-methyl-butyl)-3-oxo-6-thiazol-5-yl-2,3-dihydro-pyridazin-4-yl]-1,1-dioxo-1,2-dihydro-1λ^6-benzo[1,2,4]thiadiazin-7-yl}-methanesulfonamide] gave a negative logarithm of the IC50 (pIC50) of 6.00 to 7.00.

With `CC(C)CCn1nc(-c2cccs2)c(O)c(C2=Nc3ccc(N(C(=O)OC(C)C)S(C)(=O)=O)cc3S(=O)(=O)N2)c1=O` [N-({3-[5-hydroxy-2-(3-methyl-butyl)-3-oxo-6-thiophen-2-yl-2,3-dihydro-pyridazin-4-yl]-1,1-dioxo-1,2-dihydro-1λ^6-benzo[1,2,4]thiadiazin-7-yl}-N-methanesulfonyl)-isopropylcarbamate], the negative-log IC50 (pIC50) was 6.00 to 7.00.

In turn, `CC(C)CCn1nc(-c2cccs2)c(O)c(C2=Nc3ccc(N(COCc4ccccc4)S(C)(=O)=O)cc3S(=O)(=O)N2)c1=O` [N-Benzyloxymethyl-N-{3-[5-hydroxy-2-(3-methyl-butyl)-3-oxo-6-thiophen-2-yl-2,3-dihydro-pyridazin-4-yl]-1,1-dioxo-1,2-dihydro-1λ^6-benzo[1,2,4]thiadiazin-7-yl}-methanesulfonamide] had a pIC50 of 5.00 to 6.00.

For the compound `CS(=O)(=O)Nc1ccc2c(c1)S(=O)(=O)N=C(c1c(O)c(-c3cccs3)nn(Cc3ccccc3)c1=O)N2` [N-[3-(2-Benzyl-5-hydroxy-3-oxo-6-thiophen-2-yl-2,3-dihydro-pyridazin-4-yl)-1,1-dioxo-1,2-dihydro-1λ^6-benzo[1,2,4]thiadiazin-7-yl]-methanesulfonamide], the negative logarithm of the IC50 (pIC50) is > 7.00.

(Values after patent publication US20080275032A1, “Pyridazinone compounds” (priority 2006, published 2008).)
